Where no end group is shown, it is not given here.
Assays:
E. coli TOP10 [1] = experiment: Deep mutational scanning, site-saturation Bac7_1-23 library, intracellular self-screening with NGS; assay type: cell-based; details: intracellular expression
Protocol: A focused strategy was pursued to generate diversity at positions 5, 18, 19, and 20 in the Bac7_1-23 peptide. […] Degeneration was introduced by using the QuikChange technique, amplifying the pBAD plasmid containing the Bac7_1-23 gene using a mixture of 20 oligonucleotides (Additional file 1: Table S1) at a final concentration of 0.3 μM and Phusion® High-Fidelity PCR Master Mix in HF buffer. The amplification was performed using 20 cycles of 98°C for 10 s, 60°C for 15 s, and 72°C for 10 s. The PCR product was treated with the enzyme Dpn1 to remove the template plasmid and subsequently purified. The purified product was used to transform 20 μl of CloneCatcher™ Gold DH5G Electrocompetent E. coli (Genlantis, Burlington, USA) cells using electroporation.
To assess the antimicrobial activity of multiple peptides in parallel when expressed intracellularly in E. coli TOP10, previously prepared aliquots containing E. coli plasmid libraries created by either random mutagenesis or site-saturation mutagenesis were used. For both approaches, three aliquots containing approximately 500 million cells each of E. coli TOP10 harboring peptide-encoding DNA sequences on the pBAD plasmid were thawed and added to three 1-l baffled shake flasks containing 100 ml of LB medium + 100 μg ml^−1 carbenicillin. The cultures were grown for roughly 7 h at 37°C.

E. coli TOP10 [2] = experiment: Membrane damage assay in MHB II (GFP loss, PI uptake); assay type: cell-based; details: n = 3
[3] = approximately 16-fold above its MIC (~35 μM)
[4] = at the MIC up to 8-fold higher concentrations

## RRIRIRPPRLPRPRPRPYFMPRP [Bac7PS]
E. coli TOP10 [1]
  antimicrobial activity in the library: the most active
E. coli TOP10 [2]; [3]
  PI-positive cells: ~ 3%
  cells that lost GFP: 26%
E. coli TOP10 [2]; [4]
  PI-positive cells: ~ 1%
  cells that retained GFP levels: ~ 99%

Reference: publication PMC9112550, “Optimization of the antimicrobial peptide Bac7 by deep mutational scanning” (BMC Biology, 2022)
